Data as given in patent publication US20240158439A1, “INHIBITORS OF ANTIGEN PRESENTATION BY MHC CLASS II HLA-DRB1*15:01 MOLECULES WITH ENHANCED METABOLIC STABILITY” (Provid Pharmaceuticals Inc., priority 2021, published 2024).
Where two headings read alike, the source gives them in different places. *1 amine or outer side, *2 acyl side, *3 side chain or, on linkers, in order; H or OH if unused. Where a SMILES comes first, the peptide text is derived from it. Where no end group is shown, it is not given here. [ ]: non-standard residue; d: D form. ξ: configuration not given here. ξGly(4-Pip(1-amidino)) = N=C(N)N1CCC(C(N)C(=O)O)CC1; Ala(indol-4-yl) = N[C@@H](Cc1cccc2[nH]ccc12)C(=O)O; X3 = Nc1nc(C[C@H](N[*:1])C(=O)[*:2])c[nH]1; Oic = O=C(O)[C@@H]1C[C@@H]2CCCC[C@@H]2N1; Phe(4-F) = N[C@@H](Cc1ccc(F)cc1)C(=O)O; Bta = N[C@@H](Cc1csc2ccccc12)C(=O)O; Igl = N[C@H](C(=O)O)C1Cc2ccccc2C1; hCit = NC(=O)NCCCC[C@H](N)C(=O)O; Tic = O=C(O)[C@@H]1Cc2ccccc2CN1; Cit = NC(=O)NCCC[C@H](N)C(=O)O; Agb = N=C(N)NCC[C@H](N)C(=O)O; Chg = N[C@H](C(=O)O)C1CCCCC1; Nva = CCC[C@H](N)C(=O)O; βAla = NCCC(=O)O; Sar = CNCC(=O)O

Molecular target: T1, HLA-DRB1*15:01 (Homo sapiens, UniProt P01903+P01911)
T1 construct: endogenous in cells; host or cells: EBV homozygous cell lines (human)
Assay: HLA II binding assay (competitive, biotinylated reference peptide)

[1] = Table 2, DRB1*15:01 binding, unit inferred, nM, read-out: Avg IC50

In the case of `CC(=O)N[C@H](C(=O)N[C@H](C(=O)N[C@@H](CCCNC(=N)N)C(=O)N1Cc2ccccc2C[C@H]1C(=O)N[C@@H](Cc1ccccc1)C(N)=O)C1Cc2ccccc2C1)C(C)C` [PV-594] (Ac-V[Igl]R[Tic]F-NH2), the IC50 [1] is reported as 14 nM.

`CC(=O)N[C@H](C(=O)N[C@@H](CCCNC(=N)N)C(=O)N1Cc2ccccc2C[C@H]1C(=O)N[C@@H](Cc1cccc2[nH]ccc12)C(N)=O)C1CCCCC1` [PV-476] (Ac-[Chg]R[Tic][Ala(indol-4-yl)]-NH2) showed an IC50 [1] of 30.1 nM.

For `CC(=O)N[C@H](C(=O)N[C@H](C(=O)N[C@@H](CCNC(=N)N)C(=O)N1Cc2ccccc2C[C@H]1C(=O)N[C@@H](Cc1ccccc1)C(N)=O)C1CCCCC1)C(C)C` [PV-562] (Ac-V[Chg][Agb][Tic]F-NH2), the IC50 [1] was 5.3 nM.

With `CC(C)[C@H](NC(=O)CCN)C(=O)N[C@H](C(=O)N[C@@H](CCCNC(N)=O)C(=O)N1Cc2ccccc2C[C@H]1C(=O)N[C@@H](Cc1ccccc1)C(N)=O)C1CCCCC1` [PV-664] (H-[βAla]V[Chg][Cit][Tic]F-NH2) the IC50 [1] was 2 nM.

Work on `CNCC(=O)N[C@H](C(=O)N[C@H](C(=O)N[C@@H](CCCNC(=N)N)C(=O)N1Cc2ccccc2C[C@H]1C(=O)N[C@@H](Cc1ccccc1)C(N)=O)C1CCCCC1)C(C)C` [PV-636] (H-[Sar]V[Chg]R[Tic]F-NH2) yielded an IC50 [1] of 3 nM.

Compound “EAEQLRRAYLDGTGVE [A3 152-166, reference compound]” has an IC50 (reference peptide, DRB1*1501, read-out: IC50) of 14 nM.

Work on `CC(C)[C@H](NC(=O)CN)C(=O)N[C@H](C(=O)N[C@@H](CCCNC(=N)N)C(=O)N1Cc2ccccc2C[C@H]1C(=O)N[C@@H](Cc1ccccc1)C(N)=O)C1CCCCC1` [PV-633] (H-GV[Chg]R[Tic]F-NH2) yielded an IC50 [1] of 1 nM.

`CC(=O)N[C@H](C(=O)N[C@H](C(=O)NC(C(=O)N1Cc2ccccc2C[C@H]1C(=O)N[C@@H](Cc1ccccc1)C(N)=O)C1CCN(C(=N)N)CC1)C1CCCCC1)C(C)C` (some centres unmarked) [PV-810] (Ac-V[Chg][ξGly(4-Pip(1-amidino))][Tic]F-NH2) was tested, and the IC50 [1] was 6 nM.

With `CC(=O)N[C@H](C(=O)N[C@H](C(=O)N[C@@H](CCCNC(=N)N)C(=O)N1Cc2ccccc2C[C@H]1C(=O)N[C@@H](Cc1ccc(F)cc1)C(N)=O)C1CCCCC1)C(C)C` [PV-574] (Ac-V[Chg]R[Tic][Phe(4-F)]-NH2) the IC50 [1] was 2.3 nM.

Compound `CCC[C@H](NC(C)=O)C(=O)N[C@H](C(=O)N[C@@H](CCCNC(=N)N)C(=O)N1Cc2ccccc2C[C@H]1C(=O)N[C@@H](Cc1ccccc1)C(N)=O)C1CCCCC1` [PV-591] (Ac-[Nva][Chg]R[Tic]F-NH2) has an IC50 [1] of 4.1 nM.

Work on `CC(=O)N[C@H](C(=O)N[C@H](C(=O)N[C@@H](Cc1c[nH]c(N)n1)C(=O)N1Cc2ccccc2C[C@H]1C(=O)N[C@@H](Cc1ccccc1)C(N)=O)C1CCCCC1)C(C)C` [PV-839] (Ac-V[Chg][X3][Tic]F-NH2) yielded an IC50 [1] of 25 nM.

Compound `CC(=O)N[C@H](C(=O)N[C@@H](CCCNC(=N)N)C(=O)N[C@@H](Cc1ccccc1)C(=O)N[C@@H](Cc1ccccc1)C(N)=O)C(C)C` [PV-119, reference compound] (Ac-VRFF-NH2) has an IC50 [1] of 5000 nM.

Compound `CC(=O)N[C@H](C(=O)N[C@H](C(=O)N[C@@H](CCCCNC(N)=O)C(=O)N1Cc2ccccc2C[C@H]1C(=O)N[C@@H](Cc1ccccc1)C(N)=O)C1CCCCC1)C(C)C` [PV-640] (Ac-V[Chg][hCit][Tic]F-NH2) has an IC50 [1] of 7 nM.

Compound `CC(=O)N[C@H](C(=O)N[C@H](C(=O)N[C@@H](CCCNC(=N)N)C(=O)N1Cc2ccccc2C[C@H]1C(=O)N[C@@H](Cc1ccccc1)C(N)=O)C1CCCCC1)[C@@H](C)O` [PV-526] (Ac-T[Chg]R[Tic]F-NH2) has an IC50 [1] of 29 nM.

“Ac-VVRFF-NH2 [PV-73, reference compound]” was tested, and the IC50 [1] was 2370 nM.

`CC(=O)N[C@H](C(=O)N[C@H](C(=O)N[C@@H](CCCNC(=N)N)C(=O)N1Cc2ccccc2C[C@H]1C(=O)N[C@@H](Cc1csc2ccccc12)C(N)=O)C1CCCCC1)C(C)C` [PV-478] (Ac-V[Chg]R[Tic][Bta]-NH2) showed an IC50 [1] of 2.1 nM.

With `CC(=O)N[C@H](C(=O)N[C@H](C(=O)N[C@@H](CCCNC(=N)N)C(=O)N1[C@H](C(=O)N[C@@H](Cc2ccccc2)C(N)=O)C[C@@H]2CCCC[C@@H]21)C1CCCCC1)C(C)C` [PV-589, reference compound] (Ac-V[Chg]R[Oic]F-NH2) the IC50 [1] was 474 nM.

Compound `CC(=O)N[C@H](C(=O)N[C@H](C(=O)N[C@@H](Cc1c[nH]cn1)C(=O)N1Cc2ccccc2C[C@H]1C(=O)N[C@@H](Cc1ccccc1)C(N)=O)C1CCCCC1)C(C)C` [PV-580] (Ac-V[Chg]H[Tic]F-NH2) has an IC50 [1] of 28 nM.

In the case of `CNCC(=O)N[C@H](C(=O)N[C@H](C(=O)N[C@@H](CCCNC(N)=O)C(=O)N1Cc2ccccc2C[C@H]1C(=O)N[C@@H](Cc1ccccc1)C(N)=O)C1CCCCC1)C(C)C` [PV-662] (H-[Sar]V[Chg][Cit][Tic]F-NH2), the IC50 [1] is reported as 4 nM.

Compound `CC(C)[C@H](NC(=O)CCN)C(=O)N[C@H](C(=O)N[C@@H](Cc1ccccc1)C(=O)N[C@@H](Cc1ccccc1)C(=O)N[C@@H](Cc1ccccc1)C(N)=O)C1CCCCC1` [PV-782] (H-[βAla]V[Chg]FFF-NH2) has an IC50 [1] of 150 nM.
